Laboratory results: publication PMC12040169 (PLOS Biology, 2025)

test: in vitro; details: human, hela cells

| Structure (SMILES) | viability at 28.5 h, 10 µM |
| --- | --- |
| CNC(=O)Oc1cccc2cccnc12 [CBK015609] | 88.5% |

same assay, conditions: human, hela cells, % viability

| Structure (SMILES) | viability at 28.5 h, 10 µM |
| --- | --- |
| O=C(O)C1CCC(CNS(=O)(=O)c2ccc(Br)cc2)CC1 (stereo not drawn) [CBK027994] | 86.1% |
| O=C(Cn1cnc2ccccc2c1=O)Oc1cccc(NC2=NS(=O)(=O)c3ccccc32)c1 [CBK264975] | 83.6% |
| CCOc1ccccc1Nc1nc(N)nc(CN2CCCCC2C)n1 (stereo not drawn) [CBK266548] | 105% |
| COc1ccc(CN2C(=S)N(c3ccc(Cl)cc3)[C@H]3[C@@H]2[C@H]2OC(=O)[C@@H]3C[C@H]2O)cc1 [CBK288935] | 99.8% |
| Nc1nc(=O)[nH]c2c1ncn2[C@@H]1O[C@H](CO)[C@H](O)C1O (stereo partly drawn) [CBK201282] | 93.7% |
| CCc1nc2ccc(C(=O)Nc3cccc(OC)c3)cn2c1N(C)Cc1cccs1 [CBK145522] | 96.7% |
| CCN1CCN(C(=O)C2CC(C)=C(C)CC2C(=O)O)CC1 (stereo not drawn) [CBK270311] | 87.1% |
| Cc1nc(-c2cc3c(s2)CCN(CC(O)Cn2cccn2)C3)cs1 (stereo not drawn) [CBK304458] | 102% |
| Cc1nn(C)c(C)c1CN(C)C(=O)CCC(C)N1CCCC1 (stereo not drawn) [CBK282001] | 101% |
| CC(CCN(CCN)C(=O)N1CCC(CNS(C)(=O)=O)(c2ccccc2)CC1)c1ccccc1 (stereo not drawn) [CBK002335C] | 82.9% |
| Cc1noc(C2(O)CCN(Cc3sccc3Cl)C2)n1 (stereo not drawn) [CBK304863] | 97.5% |
| O=C1CC2CC3CC2C(Sc2ccccc2)C3O1 (stereo not drawn) [CBK016225] | 97.4% |
| CC1=C[C@@H](CNC(=O)c2ccccc2)[C@H](C(C)C)C[C@H]1CC(=O)O [CBK289213] | 102% |
| CCCN1CCc2c(sc3nc(SCC(=O)OC)nc(N)c23)C1 [CBK126911] | 96.6% |
| Cc1nc(C2CC(O)C2)cc(N2CCC(C(=O)N3CCOCC3)CC2)n1 (stereo not drawn) [CBK307675] | 102% |
| COc1cc([C@@H]2c3cc4c(cc3[C@H](O)[C@H]2C(=O)Nc2ccccc2)OCO4)cc(OC)c1OC [CBK200106] | 101% |
| Cc1nc2c(c(=O)[nH]1)CCN(Cc1ccc(Cl)c(Cl)c1)C2 [CBK283969] | 81.6% |
| CC(=O)Nc1ccc(-c2ccc3n(c2=O)C[C@H]2C[C@@H]3CN(C(=O)C3CCCCC3)C2)cc1 [CBK289188] | 84.6% |
| COc1ccc(C(=O)NCc2ccccc2)c(OC)n1 [CBK200190] | 142% |
| O=C(/C=C/c1ccc2c(c1)OCO2)N1CCN(C(=O)c2ccco2)CC1 [CBK144459] | 95.1% |
| CC(=O)Nc1ccc(CNc2ccc(C#N)cn2)cc1 [CBK297790] | 97.7% |

| Structure (SMILES) | viability at 28.5 h, 10 µM |
| --- | --- |
| Cc1csc2c(C3CCCN(C(=O)c4ccncc4)C3)nc(C)n12 (stereo not drawn) [CBK285213] | 100% |
| CC(C)NC(=O)N1Cc2nc[nH]c2C[C@H]1c1nc(-c2ccc3c(c2)OCO3)no1 [CBK289001] | 94.5% |
| CCOC(=O)C1(C2CCCCC2)CCN(C(=O)CN2C(=O)CSC2=O)CC1 [CBK160993] | 97.1% |
| Oc1cc2cccnc2nc1-c1cccc(C(F)(F)F)c1 [CBK073704] | 79% |
| CCn1c2cc(C)oc2c2cnn(CC(=O)N3CCCCC3)c(=O)c21 [CBK284220] | 90.2% |
| Cc1ccc2[nH]c(SCC(=O)Nc3cccc(NC(=O)C45CC6CC(CC(C6)C4)C5)c3)nc2c1 [CBK265679] | 96.3% |
| CC12CN3CC(C)(CN(C1)C3c1cc(Br)ccc1O)C2O (stereo not drawn) [CBK262664] | 112% |
| COc1ccc(C(=O)N2CCC3(CCCN(C(=O)c4cc(OC)c(OC)c(OC)c4)C3)C2)cc1OC (stereo not drawn) [CBK131667] | 86.7% |
| C#CCOc1cccc2oc(CCC)cc(=O)c12 [CBK005628] | 87.6% |
| COc1ccc(NC(=O)CSc2nc3ccccc3n2-c2ccccc2)c([N+](=O)[O-])c1 [CBK266060] | 91.8% |
| O=S(=O)(NCCc1cccs1)c1cc2c(N3CCNCC3)nccc2s1 [CBK041299C] | 104% |
| Cc1cc(C)n(C(C)C(=O)N(C)CCn2ccnc2C)n1 (stereo not drawn) [CBK281759] | 88.1% |
| CCOC(=O)C1=C(c2ccccc2)Nc2ncnn2C1c1cccc(OC)c1OC (stereo not drawn) [CBK266353] | 106% |
| COc1cc(-c2cnc(N)c(N[C@H](CO)C(C)C)n2)cc(OC)c1OC [CBK063765] | 113% |
| Cc1nn(C)cc1-c1cc(C(=O)Nc2ccccc2C2CC2)on1 [CBK281412] | 95.9% |
| O=C1CCc2cccc(OCCOc3nccnc3N3CCNCC3)c21 [CBK200001G] | 101% |
| Cc1cc(-c2ccccc2)sc1C(=O)/C=C(\O)C(=O)O [CBK263198] | 100% |
| CCN1CCCN(c2cc(OCc3ccc(Cl)c(Cl)c3)ncn2)CC1 [CBK083786] | 92.3% |
| CN(Cc1cc(Br)cs1)C(=O)CCc1c[nH]c2ccccc12 [CBK298268] | 108% |
| O=C(NCc1ccccn1)c1cnn(-c2ccc(Cl)cc2)c1C(F)(F)F [CBK116637T] | 101% |
| CSc1nc(C#N)c(N)c(SC2C=CCCC2)n1 (stereo not drawn) [CBK021817] | 89.4% |

| Structure (SMILES) | viability at 28.5 h, 10 µM |
| --- | --- |
| Cc1nc(C2CN(Cc3cc4ccccc4nc3Cl)CCO2)no1 (stereo not drawn) [CBK305381] | 96.5% |
| O=S(=O)(Nc1nccnc1-c1ccc2c(c1)OCO2)c1cccc(Cl)c1 [CBK050951] | 92.4% |
| O=C(Nc1ccccc1-n1ccnc1)c1ncoc1-c1ccc(F)cc1 [CBK282417] | 94.1% |
| CC(C)c1ccc(CN2CCCN(c3cc(OCCc4c[nH]c5ccccc45)ncn3)CC2)cc1 [CBK083280T] | 106% |
| O=C(Nc1ccc(S(=O)(=O)NCC2CCCO2)cc1)c1cc(-c2ccccc2)nc2ccccc12 (stereo not drawn) [CBK267537] | 84.3% |
| O=C(NCc1ccc(C(=O)O)cc1)NC1CCCCC1 [CBK286980] | 84.5% |
| O=C(NC(Cc1cccs1)c1nccs1)C1CCOC1 (stereo not drawn) [CBK285054] | 80.6% |
| Nc1ncc(-c2cccnc2)nc1-c1ccc(C(=O)N2CCOCC2)cc1 [CBK064059] | 93.4% |
| Cc1nonc1NC(=O)Nc1ccncc1 [CBK260982] | 94.7% |
| COc1cc(-c2cc(N3CCN(CCN4CCCC4)CC3)ncn2)cc(OC)c1OC [CBK037841] | 102% |
| CC(=O)N1CCC(C(=O)NC(c2ccc3c(c2)OCO3)c2cccs2)CC1 (stereo not drawn) [CBK059881] | 101% |
| CC(=O)Nc1ccc(S(=O)(=O)N2CCN(C(=O)COc3ccc4ccccc4c3)CC2)cc1 [CBK264164] | 103% |
| C=CCn1c(SCCC(=O)O)nc2c1c(=O)n(C)c(=O)n2C [CBK269573] | 79.3% |
| COc1cccc(CC(=O)N2CCCC(c3cc4ncccc4[nH]3)C2)c1 (stereo not drawn) [CBK283426] | 94.1% |
| NS(=O)(=O)c1ccc(CCNC(=O)/C=C/c2ccccc2Cl)cc1 [CBK264379] | 94% |
| Cc1cc(C(=O)NCCn2ccnc2C)nc2ccccc12 [CBK281894] | 101% |
| Cc1ccc2nc(/C(C#N)=C/c3ccc(-c4ccc(S(N)(=O)=O)cc4)o3)[nH]c2c1 [CBK266386] | 94% |
| CN1CCCN(c2cc(C(F)(F)F)c3scc(C(=O)NCc4cccc(F)c4F)c3n2)CC1 [CBK036386T] | 87.9% |
| CCc1c(C)nn(-c2ccccc2Br)c1-c1ccccc1 [CBK016757] | 87.9% |

same assay, conditions: human, hela cells, % viability, bulk resorufin, single well

| Structure (SMILES) | viability at 28.5 h, 10 µM |
| --- | --- |
| CCOC(=O)N1CCC2(CC1)OCc1cc(-c3cccc(F)c3)ccc1O2 [CBK060987] | 104% |
